According to patent US20250236616A1, “IMMUNOMODULATING AZALIDES” (Zoetis Services LLC, priority 2021, published 2025):

What was measured:
Assay type in all cases: cell-based
TNF-α = assay: Whole bovine blood assay, LPS-induced TNF-α; conditions: fresh whole bovine blood, LPS stimulant; top drug concentration 250 μM
Method in brief: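 Fresh heparinized bovine whole blood was preincubated with compound 4 h at 37 °C, then stimulated with LPS (final 1 μg/mL) for 18 h at 37 °C. Plasma TNF-α was quantified by MSD U-Plex chemiluminescent immunoassay, normalized to total protein (BCA), and IC50 taken for LPS-induced TNF-α inhibition.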

IL-1β = assay: Whole bovine blood assay, LPS-induced IL-1β (inhibition / overstimulation); conditions: drug concentration giving overstimulation (OS) of LPS-induced IL-1β, top concentration 250 μM
Method in brief: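 IL-1β was quantified by MSD U-Plex chemiluminescence in plasma and normalized to BCA total protein. Bovine blood was pretreated 4 h at 37 °C with compound dilutions before 18 h LPS challenge (1 μg/mL final). Rising IL-1β at high concentrations was recorded as overstimulation.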

IL-6 = assay: Whole bovine blood assay, LPS-induced IL-6; conditions: fresh whole bovine blood, LPS stimulant; top drug concentration 250 μM

SMILES: CCCNC[C@]1(O)[C@H](C)O[C@@H](O[C@H]2[C@H](C)[C@@H](O[C@@H]3O[C@H](C)C[C@H]4[C@H]3OS(=O)(=O)N4C)[C@](C)(O)C[C@@H](C)CN[C@H](C)[C@@H](O)[C@](C)(O)[C@@H](CC)OC(=O)[C@@H]2C)C[C@@]1(C)OC [Example D-1]
- IC50 (TNF-α): 5 µM
- minimal effective concentration (IL-1β): 16 µM
- IC50 (IL-6): 27 µM

SMILES: CC[C@H]1OC(=O)[C@H](C)[C@@H](O[C@H]2C[C@@](C)(OC)[C@](O)(CNCCN3CCCC3)[C@H](C)O2)[C@H](C)[C@@H](O[C@@H]2O[C@H](C)C[C@H](N(C)S(=O)(=O)Nc3ccc(C(F)(F)F)cc3)[C@H]2O)[C@](C)(O)C[C@@H](C)CN[C@H](C)[C@@H](O)[C@]1(C)O [Example B-68]
- IC50 (TNF-α): 5 µM
- minimal effective concentration (IL-1β): 16 µM
- IC50 (IL-6): 25 µM

SMILES: CC[C@H]1OC(=O)[C@H](C)[C@@H](O[C@H]2C[C@@](C)(OC)[C@](O)(CNCCN(C)C)[C@H](C)O2)[C@H](C)[C@@H](O[C@@H]2O[C@H](C)C[C@H](N(C)S(=O)(=O)Nc3ccc(C(F)(F)F)cc3)[C@H]2O)[C@](C)(O)C[C@@H](C)CN[C@H](C)[C@@H](O)[C@]1(C)O [Example B-82]
- IC50 (TNF-α): 71 µM
- minimal effective concentration (IL-1β): >250 µM
- IC50 (IL-6): > 250 µM

SMILES: CC[C@H]1OC(=O)[C@H](C)[C@@H](O[C@H]2C[C@@](C)(OC)[C@](O)(CN3CCN(C(C)C)CC3)[C@H](C)O2)[C@H](C)[C@@H](O[C@@H]2O[C@H](C)C[C@H](N(C)S(=O)(=O)Nc3ccc(C(F)(F)F)cc3)[C@H]2O)[C@](C)(O)C[C@@H](C)CN[C@H](C)[C@@H](O)[C@]1(C)O [Example C-14]
- IC50 (TNF-α): > 250 µM
- minimal effective concentration (IL-1β): >250 µM
- IC50 (IL-6): > 250 µM

SMILES: CC[C@H]1OC(=O)[C@H](C)[C@@H](O[C@H]2C[C@@](C)(OC)[C@](O)(Cn3cnnn3)[C@H](C)O2)[C@H](C)[C@@H](O[C@@H]2O[C@H](C)C[C@H](N(C)S(=O)(=O)c3ccc(Cl)cc3)[C@H]2O)[C@](C)(O)C[C@@H](C)CN[C@H](C)[C@@H](O)[C@]1(C)O [Example C-9]
- IC50 (TNF-α): 23 µM
- minimal effective concentration (IL-1β): 8 µM
- IC50 (IL-6): 23 µM

SMILES: CC[C@H]1OC(=O)[C@H](C)[C@@H](O[C@H]2C[C@@](C)(OC)[C@](O)(CN3CCCCC3)[C@H](C)O2)[C@H](C)[C@@H](O[C@@H]2O[C@H](C)C[C@H](N(C)S(=O)(=O)N(CC)CC)[C@H]2O)[C@](C)(O)C[C@@H](C)CN[C@H](C)[C@@H](O)[C@]1(C)O [Example C-35]
- IC50 (TNF-α): 33 µM
- minimal effective concentration (IL-1β): 11 µM
- IC50 (IL-6): 23 µM

SMILES: CCCNC[C@]1(O)[C@H](C)O[C@@H](O[C@H]2[C@H](C)[C@@H](O[C@@H]3O[C@H](C)C[C@H](N(C)S(=O)(=O)N(C)CC(F)(F)F)[C@H]3O)[C@](C)(O)C[C@@H](C)CN[C@H](C)[C@@H](O)[C@](C)(O)[C@@H](CC)OC(=O)[C@@H]2C)C[C@@]1(C)OC [Example B-112]
- IC50 (TNF-α): 39 µM
- minimal effective concentration (IL-1β): 40 µM
- IC50 (IL-6): 45 µM

SMILES: CC[C@H]1OC(=O)[C@H](C)[C@@H](O)[C@H](C)[C@@H](O[C@@H]2O[C@H](C)C[C@H](N(C)S(=O)(=O)c3ccc(N4CCOCC4)nc3)[C@H]2Oc2ccc(F)cc2)[C@](C)(O)C[C@@H](C)CN[C@H](C)[C@@H](O)[C@]1(C)O [Example A-21]
- IC50 (TNF-α): 16 µM
- minimal effective concentration (IL-1β): 16 µM
- IC50 (IL-6): 16 µM

SMILES: CCCNC[C@]1(O)[C@H](C)O[C@@H](O[C@H]2[C@H](C)[C@@H](O[C@@H]3O[C@H](C)C[C@H](N(C)S(=O)(=O)N(C)c4ccccc4)[C@H]3O)[C@](C)(O)C[C@@H](C)CN[C@H](C)[C@@H](O)[C@](C)(O)[C@@H](CC)OC(=O)[C@@H]2C)C[C@@]1(C)OC [Example B-57]
- IC50 (TNF-α): 5 µM
- minimal effective concentration (IL-1β): 16 µM
- IC50 (IL-6): 8 µM

SMILES: CCCNC[C@]1(O)[C@H](C)O[C@@H](O[C@H]2[C@H](C)[C@@H](O[C@@H]3O[C@H](C)C[C@H](N(C)S(=O)(=O)c4ncn(C)c4Cl)[C@H]3Oc3ccc(OC)cc3)[C@](C)(O)C[C@@H](C)CN[C@H](C)[C@@H](O)[C@](C)(O)[C@@H](CC)OC(=O)[C@@H]2C)C[C@@]1(C)OC [Example B-111]
- IC50 (TNF-α): > 250 µM
- minimal effective concentration (IL-1β): 17 µM
- IC50 (IL-6): 141 µM

SMILES: CCCNC[C@]1(O)[C@H](C)O[C@@H](O[C@H]2[C@H](C)[C@@H](O[C@@H]3O[C@H](C)C[C@H](N(C)S(=O)(=O)N4CCc5ccccc5C4)[C@H]3O)[C@](C)(O)C[C@@H](C)CN[C@H](C)[C@@H](O)[C@](C)(O)[C@@H](CC)OC(=O)[C@@H]2C)C[C@@]1(C)OC [Example B-42]
- IC50 (TNF-α): 13 µM
- minimal effective concentration (IL-1β): 2 µM
- IC50 (IL-6): 8 µM

SMILES: CC[C@H]1OC(=O)[C@H](C)[C@@H](O[C@H]2C[C@@](C)(OC)[C@](O)(CN3CCCC3)[C@H](C)O2)[C@H](C)[C@@H](O[C@@H]2O[C@H](C)C[C@H](N(C)S(=O)(=O)c3ccc(Cl)cc3)[C@H]2O)[C@](C)(O)C[C@@H](C)CN[C@H](C)[C@@H](O)[C@]1(C)O [Example C-3]
- IC50 (TNF-α): 5 µM
- minimal effective concentration (IL-1β): 16 µM
- IC50 (IL-6): 9 µM

SMILES: CCCNC[C@]1(O)[C@H](C)O[C@@H](O[C@H]2[C@H](C)[C@@H](O[C@@H]3O[C@H](C)C[C@H](N(Cc4ccccc4)S(=O)(=O)c4ccc(OC)cc4)[C@H]3O)[C@](C)(O)C[C@@H](C)CN[C@H](C)[C@@H](O)[C@](C)(O)[C@@H](CC)OC(=O)[C@@H]2C)C[C@@]1(C)OC [Example B-144]
- IC50 (TNF-α): 9 µM
- minimal effective concentration (IL-1β): 2 µM
- IC50 (IL-6): 10 µM

SMILES: CC[C@H]1OC(=O)[C@H](C)[C@@H](O)[C@H](C)[C@@H](O[C@@H]2O[C@H](C)C[C@H](N(C)S(=O)(=O)c3ccccc3)[C@H]2Oc2ccc(F)cc2)[C@](C)(O)C[C@@H](C)CN[C@H](C)[C@@H](O)[C@]1(C)O [Example A-23]
- IC50 (TNF-α): 36 µM
- minimal effective concentration (IL-1β): 16 µM
- IC50 (IL-6): 22 µM

SMILES: CCCNC[C@]1(O)[C@H](C)O[C@@H](O[C@H]2[C@H](C)[C@@H](O[C@@H]3O[C@H](C)C[C@H](N(Cc4ccc(OC)cc4)S(=O)(=O)c4ccc(OC)cc4)[C@H]3O)[C@](C)(O)C[C@@H](C)CN[C@H](C)[C@@H](O)[C@](C)(O)[C@@H](CC)OC(=O)[C@@H]2C)C[C@@]1(C)OC [Example B-147]
- IC50 (TNF-α): 7 µM
- minimal effective concentration (IL-1β): 1 µM
- IC50 (IL-6): 5 µM

SMILES: CCCNC[C@]1(O)[C@H](C)O[C@@H](O[C@H]2[C@H](C)[C@@H](O[C@@H]3O[C@H](C)C[C@H](N(C)S(=O)(=O)c4nccn4C)[C@H]3Oc3ccccn3)[C@](C)(O)C[C@@H](C)CN[C@H](C)[C@@H](O)[C@](C)(O)[C@@H](CC)OC(=O)[C@@H]2C)C[C@@]1(C)OC [Example B-131]
- IC50 (TNF-α): 28 µM
- minimal effective concentration (IL-1β): 6 µM
- IC50 (IL-6): 17 µM
